Measured values: paper PMC12706802, “Ortho-Hydroxyanilides: Slow-Acting, Selective Histone Deacetylase 1/2 Inhibitors Suitable for Photocaging Applications” (ACS Pharmacology & Translational Science, 2025)

Columns and labels:
HDAC2 [1] = target: T1, HDAC2 (Homo sapiens, UniProt Q92769); assay: IC50-shift (preincubation time) experiments
Description: First, 3-fold serial dilutions of test compounds were prepared in DMSO. […] IC50 values were determined by generating normalized dose–response curves using the three-parameter logistic equation (GraphPad Prism 8.0, San Diego, USA).
For IC50-shift experiments the preincubation time for the HDAC enzyme inhibition assay was varied. […] Afterward, the assay was continued as described in the HDAC enzyme inhibition assay.

human recombinant HDAC6 = target: T2, human recombinant HDAC6 (Homo sapiens, UniProt Q9UBN7); assay: Fluorescence-based biochemical HDAC enzyme inhibition assay (ZMAL substrate)
T2 sequence (Q9UBN7 1-1215): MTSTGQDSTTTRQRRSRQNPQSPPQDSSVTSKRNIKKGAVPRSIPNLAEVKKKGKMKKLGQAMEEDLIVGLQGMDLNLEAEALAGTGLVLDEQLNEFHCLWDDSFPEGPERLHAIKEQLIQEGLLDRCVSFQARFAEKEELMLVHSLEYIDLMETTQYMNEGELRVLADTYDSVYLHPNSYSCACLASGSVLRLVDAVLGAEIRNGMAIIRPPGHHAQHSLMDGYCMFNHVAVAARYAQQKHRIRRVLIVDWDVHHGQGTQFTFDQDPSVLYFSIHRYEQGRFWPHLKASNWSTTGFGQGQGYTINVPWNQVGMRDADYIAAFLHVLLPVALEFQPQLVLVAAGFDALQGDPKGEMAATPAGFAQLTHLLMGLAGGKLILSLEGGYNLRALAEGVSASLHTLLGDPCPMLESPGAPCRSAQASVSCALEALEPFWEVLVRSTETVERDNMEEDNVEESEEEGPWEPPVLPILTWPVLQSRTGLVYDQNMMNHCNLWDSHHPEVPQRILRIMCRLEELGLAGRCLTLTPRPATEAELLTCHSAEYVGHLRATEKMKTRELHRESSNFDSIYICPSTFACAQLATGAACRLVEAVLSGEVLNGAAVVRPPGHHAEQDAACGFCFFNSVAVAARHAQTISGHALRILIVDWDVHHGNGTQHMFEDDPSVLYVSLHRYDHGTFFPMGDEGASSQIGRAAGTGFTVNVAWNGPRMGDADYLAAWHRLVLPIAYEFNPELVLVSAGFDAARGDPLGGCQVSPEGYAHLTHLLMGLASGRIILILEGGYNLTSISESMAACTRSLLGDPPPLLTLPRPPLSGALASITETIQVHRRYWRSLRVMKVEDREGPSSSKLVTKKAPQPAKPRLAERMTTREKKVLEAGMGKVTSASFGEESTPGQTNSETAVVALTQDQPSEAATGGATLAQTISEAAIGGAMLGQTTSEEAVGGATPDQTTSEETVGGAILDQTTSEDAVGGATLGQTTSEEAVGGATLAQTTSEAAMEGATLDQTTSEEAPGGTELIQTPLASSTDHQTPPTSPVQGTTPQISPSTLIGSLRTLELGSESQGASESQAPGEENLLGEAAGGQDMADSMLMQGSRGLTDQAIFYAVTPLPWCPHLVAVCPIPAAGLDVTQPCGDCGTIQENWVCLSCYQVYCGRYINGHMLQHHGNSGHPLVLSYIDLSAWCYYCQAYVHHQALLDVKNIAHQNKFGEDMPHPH
Description: First, the inhibitory activity and isoform selectivity of compounds and controls (see Figure ) was evaluated in a fluorescence-based biochemical HDAC inhibition assay against recombinant HDAC1, HDAC2, HDAC3, and HDAC6. […] First, 3-fold serial dilutions of test compounds were prepared in DMSO. […] IC50 values were determined by generating normalized dose–response curves using the three-parameter logistic equation (GraphPad Prism 8.0, San Diego, USA).

HDAC2 [2] = target: T1, HDAC2; assay: 100-fold jump-dilution experiments; conditions: 1 h incubation at 10-fold IC50, then 1:100 dilution
Description: The assay was performed according to a previously published protocol with minor modifications. […] Subsequently, this “incubation mix” was diluted 1:100, and the dissociation of test compounds was monitored continuously.
The enzymes were preincubated with the inhibitor for 1 h before 1:100 dilution. […] The assay was performed in triplicates and repeated at least twice.
Afterward, the “incubation mix” was diluted 100-fold either with assay buffer or the respective inhibitor solution at its original concentration. […] Compounds were tested in triplicates in at least two independent experiments.

T1 sequence (Q92769 whole entry): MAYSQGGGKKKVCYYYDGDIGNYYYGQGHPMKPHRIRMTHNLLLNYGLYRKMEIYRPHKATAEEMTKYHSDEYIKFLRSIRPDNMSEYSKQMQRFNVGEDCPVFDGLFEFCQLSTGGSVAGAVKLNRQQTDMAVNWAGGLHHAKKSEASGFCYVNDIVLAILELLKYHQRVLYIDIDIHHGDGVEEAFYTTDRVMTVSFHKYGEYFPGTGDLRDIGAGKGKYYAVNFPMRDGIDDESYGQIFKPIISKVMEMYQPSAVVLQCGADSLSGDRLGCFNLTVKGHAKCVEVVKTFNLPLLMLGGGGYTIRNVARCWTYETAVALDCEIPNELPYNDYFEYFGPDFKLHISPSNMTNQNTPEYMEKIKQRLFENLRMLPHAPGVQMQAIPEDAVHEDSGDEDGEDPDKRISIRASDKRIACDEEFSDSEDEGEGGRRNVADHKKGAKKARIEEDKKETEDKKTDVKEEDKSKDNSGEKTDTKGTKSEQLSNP

Compound: CC(=O)Nc1ccc(C(=O)Nc2cc(-c3ccccc3)ccc2O)cc1 [ST13, 4-Acetamido-N-(4-hydroxy-[1,1′-biphenyl]-3-yl)-benzamide]
- IC50 (HDAC2 [1]; HDAC2 IC50, preincubation time 5 min): 0.082 ± 0.012 µM
- IC50 (HDAC2 [1]; HDAC2 IC50, preincubation time 30 min): 0.083 ± 0.003 µM
- IC50 (HDAC2 [1]; HDAC2 IC50, preincubation time 60 min): 0.075 ± 0.005 µM
- IC50 (HDAC2 [1]; HDAC2 IC50, preincubation time 120 min): 0.049 ± 0.009 µM
- IC50 (human recombinant HDAC6): > 10 µM
- dissociation behavior from HDAC2 upon 100-fold dilution (HDAC2 [2]): tight-binding properties
